Data: article PMC7170360 (Drug Delivery, 2020)

What was measured:
[1] = system: Hep-G2 cells; assay: MTT cytotoxicity assay; type: cell-based; conditions: Homo sapiens
Protocol: The in vitro cytotoxicity of HES-10-HCPT-SS-Ly micelles was evaluated by MTT assay and Hep-G2 cell lines were used as model object. The Hep-G2 cells were seeded by using 96-well plates and the cell density was 6 × 10^3. The temperature of cell culture was 37 °C and the concentration of CO2 was 5%. The culture medium was removed after 24 h and the micelle solutions with different concentrations are added. The incubation time was 48 h and 72 h respectively to fully evaluate the relationship between cytotoxicity and culture time. Then, 50 μL MTT (0.25 mg/mL) was added to each well and the supernatant was removed. The precipitated formazan crystals were dissolved by DMSO solution after 4 h. The OD values were determined by using an ELIASA reader and the detection wavelength was 492 nm. In addition, cellular uptake of HES-10-HCPT-SS-Ly micelles was also assessed in Hep-G2 cell line. Similarly, the culture medium was removed and different 10-HCPT preparations were added with concentrations of 1.0 mg/mL 24 h after incubation. The 96-well plate was incubated at room temperature on a plate shaker for 24 h, the cells were then washed three times with PBS solution. […] Then, the concentration of 10-HCPT in Hep-G2 cells was determined by HPLC–MS/MS method.

[2] = system: Hep-G2 cells; assay: Cellular uptake test (10-HCPT in cells by HPLC-MS/MS); type: cell-based, human; conditions: pH 7.4, 72 h incubation, compared with HES-10-HCPT micelles and HES-10-HCPT-SS-Ly micelles
Protocol: The in vitro cytotoxicity of HES-10-HCPT-SS-Ly micelles was evaluated by MTT assay and Hep-G2 cell lines were used as model object. The Hep-G2 cells were seeded by using 96-well plates and the cell density was 6 × 10^3. The temperature of cell culture was 37 °C and the concentration of CO2 was 5%. The culture medium was removed after 24 h and the micelle solutions with different concentrations are added. The incubation time was 48 h and 72 h respectively to fully evaluate the relationship between cytotoxicity and culture time. Then, 50 μL MTT (0.25 mg/mL) was added to each well and the supernatant was removed. The precipitated formazan crystals were dissolved by DMSO solution after 4 h. The OD values were determined by using an ELIASA reader and the detection wavelength was 492 nm. In addition, cellular uptake of HES-10-HCPT-SS-Ly micelles was also assessed in Hep-G2 cell line. Similarly, the culture medium was removed and different 10-HCPT preparations were added with concentrations of 1.0 mg/mL 24 h after incubation. […] Briefly, cells were collected and lysed using a French Pressure Cell, the lysate was clarified by centrifugation, and the supernatant liquid was processed by applying liquid–liquid extraction. Then, the concentration of 10-HCPT in Hep-G2 cells was determined by HPLC–MS/MS method.

[3] = Rat pharmacokinetics after intravenous administration; type: in vivo, Sprague-Dawley rats; conditions: Sprague-Dawley, plasma, 1.5 mg/kg
Protocol: The pharmacokinetics of HES-10-HCPT-SS-Ly micelles and 10-HCPT injection in Sprague-Dawley rats were evaluated in this study (n = 6). Briefly, HES-10-HCPT-SS-Ly micelles and 10-HCPT injection were injected, respectively. The dose of 10-HCPT was 1.5 mg/kg in both groups. 0.2 mL blood was collected 5 min, 10 min, 15 min, 30 min, 60 min, 2 h, 4 h, 6 h, 8 h, 12 h, 24 h, 48 h, and 72 h after administration. The concentration of 10-HCPT in plasma was determined by HPLC–MS/MS method.

CC[C@@]1(O)C(=O)OCc2c1cc1n(c2=O)Cc2cc3cc(O)ccc3nc2-1 [free 10-HCPT, 10-Hydroxy camptothecin]
IC50 ([1]; HepG2, culture medium pH 7.4, MTT): 5.1 µM
IC50 ([1]; HepG2, pH 5.5, MTT): 4.3 µM
cellular uptake by Hep G2 cells [2]: more easily taken up
half-life [3]: 10 min
